A value given as a limit tells only on which side of the number the result lay.

The target of this assay is T1, full length active recombinant SYK enzyme (Homo sapiens, UniProt P43405).
T1 construct: full length active recombinant SYK enzyme (Millipore, Calif.); purchased Millipore
The assay is described as follows: Inhibition of Syk tyrosine phosphorylation activity (LANCE TR-FRET kinase assay). It is filed as biochemical. As to conditions: activity in the Syk assays, class symbols. In outline: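 IC50 was derived by non-linear regression of TR-FRET signal (Eu-W1024-PY100 donor, streptavidin-APC acceptor) read 1 h after EDTA quench. The kinase step ran 1 h at room temperature with 1 nM full-length SYK, 550 nM biotinylated DEEDYESP substrate and 100 μM ATP in Tris pH 7.5/MgCl2/DTT at 3% final DMSO.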
On to `NC(=O)c1ncc(N[C@@H]2CCCC[C@@H]2N)nc1Nc1cc(-c2ncccn2)cc(-n2cccn2)c1` [Example 45, 3-(3-(1H-pyrazol-1-yl)-5-(pyrimidin-2-yl)phenylamino)-5-((1R,2S)-2-aminocyclohexylamino)pyrazine-2-carboxamide], for which the IC50 fell in the range of 1 to 10 nM.
With `NC(=O)c1ncc(N[C@@H]2CCCC[C@@H]2N)nc1Nc1cc(-n2cccn2)cc(-n2cccn2)c1` [Example 44, 5-((1R,2S)-2-aminocyclohexylamino)-3-(3,5-di(1H-pyrazol-1-yl)phenylamino)pyrazine-2-carboxamide], the 50% inhibitory concentration (IC50) is 1 to 10 nM.
Take `NC(=O)c1ncc(N[C@@H]2CCCC[C@@H]2N)nc1Nc1cc(-n2ccnn2)cc(-n2nccn2)c1` [Example 429, 3-((3-(1H-1,2,3-triazol-1-yl)-5-(2H-1,2,3-triazol-2-yl)phenyl)amino)-5-(((1R,2S)-2-aminocyclohexyl)amino)pyrazine-2-carboxamide]: the IC50 lay within 1 to 10 nM.
Regarding `NC(=O)c1ncc(N[C@@H]2CCCC[C@@H]2N)nc1Nc1cc(-c2ncccn2)cc(-c2ncccn2)c1` [Example 423, 5-(((1R,2S)-2-aminocyclohexyl)amino)-3-((3,5-di(pyrimidin-2-yl)phenyl)amino)pyrazine-2-carboxamide], the IC50 is 1 to 10 nM.
In the case of `CC(C)(C)C[C@@H](Nc1cnc(C(N)=O)c(Nc2cnc3cccnc3c2)n1)C(N)=O` [Example 246, (R)-3-(1,5-naphthyridin-3-ylamino)-5-(1-amino-4,4-dimethyl-1-oxopentan-2-ylamino)pyrazine-2-carboxamide], the IC50 lay within 1 to 10 nM.
As to `NC(=O)c1ncc(N[C@@H]2CCCC[C@@H]2N)nc1Nc1cccc(C(=O)N2CCCC2)c1` [Example 287, 5-((1R,2S)-2-aminocyclohexylamino)-3-(3-(pyrrolidine-1-carbonyl)phenylamino)pyrazine-2-carboxamide], the IC50 fell in the range of 10 to 100 nM.
In the case of `COc1cc(Nc2nc(N[C@@H]3CCOC[C@@H]3N)cnc2C(N)=O)ccn1` [Example 357, 5-((3R,4R)-3-aminotetrahydro-2H-pyran-4-ylamino)-3-(2-methoxypyridin-4-ylamino)pyrazine-2-carboxamide] it was 1 to 10 nM.
In the case of `NC(=O)c1ncc(N[C@@H](C(N)=O)C2CC2)nc1Nc1cnc2ccccc2c1` [Example 68, (R)-5-(2-amino-1-cyclopropyl-2-oxoethylamino)-3-(quinolin-3-ylamino)pyrazine-2-carboxamide] it was 1 to 10 nM.
The result for `NC(=O)c1ncc(N[C@@H]2CCCC[C@@H]2N)nc1Nc1ccc(N2CCOCC2)c(F)c1` [Example 439, 5-(((1R,2S)-2-aminocyclohexyl)amino)-3-((3-fluoro-4-morpholinophenyl)amino)pyrazine-2-carboxamide] reads 1 to 10 nM; that for `CC(C)[C@@H](Nc1cnc(C(N)=O)c(Nc2cnc3cc(F)ccc3c2)n1)C(N)=O` [Example 203, (R)-5-(1-amino-3-methyl-1-oxobutan-2-ylamino)-3-(7-fluoroquinolin-3-ylamino)pyrazine-2-carboxamide], 1 to 10 nM.
As to `CC[C@@H](Nc1cnc(C(N)=O)c(Nc2csc3ncccc23)n1)C(N)=O` [Example 75, (R)-5-(1-amino-1-oxobutan-2-ylamino)-3-(thieno[2,3-b]pyridin-3-ylamino)pyrazine-2-carboxamide], the IC50 lay in the range of 1 to 10 nM.
The result for `NC(=O)c1ncc(N[C@@H]2CCCC(F)(F)[C@@H]2N)nc1Nc1ccc2ncncc2c1` [Example 405, 5-((1R,2R)-2-amino-3,3-difluorocyclohexylamino)-3-(quinazolin-6-ylamino)pyrazine-2-carboxamide] reads 1 to 10 nM.
`Cc1cccc(Nc2nc(N[C@@H]3CCCC[C@@H]3N)cnc2C(N)=O)c1` [Example 275, 5-((1R,2S)-2-aminocyclohexylamino)-3-(m-tolylamino)pyrazine-2-carboxamide]: the IC50 is below 1 nM.
In the case of `CC[C@@H](Nc1cnc(C(N)=O)c(Nc2cc(OC)cc(OC)c2)n1)C(N)=O` [Example 158, (R)-5-(1-amino-1-oxobutan-2-ylamino)-3-(3,5-dimethoxyphenylamino)pyrazine-2-carboxamide], the IC50 is 10 to 100 nM.
The result for `NC(=O)c1ncc(N[C@@H]2CCCC[C@@H]2N)nc1Nc1cnc2cc(F)ccc2c1` [Example 201, 5-((1R,2S)-2-aminocyclohexylamino)-3-(7-fluoroquinolin-3-ylamino)pyrazine-2-carboxamide] reads 1 to 10 nM.
The result for `CC[C@@H](Nc1cnc(C(N)=O)c(Nc2cccc3cnccc23)n1)C(N)=O` [Example 378, (R)-5-(1-amino-1-oxobutan-2-ylamino)-3-(isoquinolin-5-ylamino)pyrazine-2-carboxamide] reads 10 to 100 nM; that for `NC(=O)c1ncc(N[C@@H]2CCCC[C@@H]2N)nc1Nc1cnc2cccnc2c1` [Example 419, 3-((1,5-naphthyridin-3-yl)amino)-5-(((1R,2S)-2-aminocyclohexyl)amino)pyrazine-2-carboxamide], 1 to 10 nM; that for `CC[C@@H](Nc1cnc(C(N)=O)c(Nc2cncc(F)c2)n1)C(N)=O` [Example 182, (R)-5-(1-amino-1-oxobutan-2-ylamino)-3-(5-fluoropyridin-3-ylamino)pyrazine-2-carboxamide], 10 to 100 nM.
The result for `CC(C)[C@@H](Nc1cnc(C(N)=O)c(Nc2ccc3ccncc3c2)n1)C(N)=O` [Example 195, (R)-5-(1-amino-3-methyl-1-oxobutan-2-ylamino)-3-(isoquinolin-7-ylamino)pyrazine-2-carboxamide] reads 1 to 10 nM; that for `CC(C)C[C@@H](Nc1cnc(C(N)=O)c(Nc2cccc(-n3nccn3)c2)n1)C(N)=O` [Example 64, (R)-3-(3-(2H-1,2,3-triazol-2-yl)phenylamino)-5-(1-amino-4-methyl-1-oxopentan-2-ylamino)pyrazine-2-carboxamide], 10 to 100 nM; that for `CC[C@@H](Nc1cnc(C(N)=O)c(Nc2ccc3nccn3c2)n1)C(N)=O` [Example 426, (R)-5-((1-amino-1-oxobutan-2-yl)amino)-3-(imidazo[1,2-a]pyridin-6-ylamino)pyrazine-2-carboxamide], 1 to 10 nM.
Consider `NC(=O)c1ncc(N[C@@H]2CCCC(F)(F)[C@@H]2N)nc1Nc1cccc(-n2nccn2)c1` [Example 15, 3-(3-(2H-1,2,3-triazol-2-yl)phenylamino)-5-((1R,2R)-2-amino-3,3-difluorocyclohexylamino)pyrazine-2-carboxamide], for which the IC50 was 10 to 100 nM.
For `CC[C@@H](Nc1cnc(C(N)=O)c(Nc2cc(F)c3ncccc3c2)n1)C(N)=O` [Example 208, (R)-5-(1-amino-1-oxobutan-2-ylamino)-3-(8-fluoroquinolin-6-ylamino)pyrazine-2-carboxamide], the IC50 lay in the range of 1 to 10 nM.
In the case of `CCOc1ccc(Nc2nc(N[C@@H]3CCCC[C@@H]3N)cnc2C(N)=O)cn1` [Example 308, 5-((1R,2S)-2-aminocyclohexylamino)-3-(6-ethoxypyridin-3-ylamino)pyrazine-2-carboxamide] it was 1 to 10 nM.
With `NC(=O)c1ncc(N[C@@H]2CCCC[C@@H]2N)nc1N[C@@H]1COc2ccccc2C1` [Example 416, 5-(((1R,2S)-2-aminocyclohexyl)amino)-3-((S)-chroman-3-ylamino)pyrazine-2-carboxamide], the IC50 was 100 to 1000 nM.
For the molecule `Cc1cc(Nc2nc(NC3(C(N)=O)CC3)cnc2C(N)=O)sn1` [Example 220, 5-(1-carbamoylcyclopropylamino)-3-(3-methylisothiazol-5-ylamino)pyrazine-2-carboxamide], the IC50 lay within 1 to 10 nM.
On to `COc1cc(Nc2nc(N[C@@H]3CCCC(F)(F)[C@@H]3N)cnc2C(N)=O)cc(OC)c1` [Example 168, 5-((1R,2R)-2-amino-3,3-difluorocyclohexylamino)-3-(3,5-dimethoxyphenylamino)pyrazine-2-carboxamide], for which the half-inhibitory concentration (IC50) lay within 10 to 100 nM.
Regarding `COC[C@@H](Nc1cnc(C(N)=O)c(Nc2ccc3ncccc3c2)n1)C(N)=O` [Example 360, (R)-5-(1-amino-3-methoxy-1-oxopropan-2-ylamino)-3-(quinolin-6-ylamino)pyrazine-2-carboxamide], the IC50 lay within 10 to 100 nM.
Turning to `CC(C)[C@@H](Nc1cnc(C(N)=O)c(Nc2cncc(Cl)c2)n1)C(N)=O` [Example 222, (R)-5-(1-amino-3-methyl-1-oxobutan-2-ylamino)-3-(5-chloropyridin-3-ylamino)pyrazine-2-carboxamide], the IC50 lay in the range of 10 to 100 nM.
As for `CC[C@@H](Nc1cnc(C(N)=O)c(Nc2ccc3ccncc3c2)n1)C(N)=O` [Example 379, (R)-5-(1-amino-1-oxobutan-2-ylamino)-3-(isoquinolin-7-ylamino)pyrazine-2-carboxamide], the IC50 lay in the range of 1 to 10 nM.
The result for `CC(C)[C@@H](Nc1cnc(C(N)=O)c(Nc2cc(F)c3ncccc3c2)n1)C(N)=O` [Example 206, (R)-5-(1-amino-3-methyl-1-oxobutan-2-ylamino)-3-(8-fluoroquinolin-6-ylamino)pyrazine-2-carboxamide] reads 1 to 10 nM; that for `CC[C@@H](Nc1cnc(C(N)=O)c(Nc2snc(C)c2Cl)n1)C(N)=O` [Example 135, (R)-5-((1-amino-1-oxobutan-2-yl)amino)-3-((4-chloro-3-methylisothiazol-5-yl)amino)pyrazine-2-carboxamide], 10 to 100 nM.
As for `CC[C@@H](Nc1cnc(C(N)=O)c(Nc2cc(C)ccn2)n1)C(N)=O` [Example 320, (R)-5-(1-amino-1-oxobutan-2-ylamino)-3-(4-methylpyridin-2-ylamino)pyrazine-2-carboxamide], the IC50 was above 1000 nM.
Consider `CC(=O)N1CC[C@@H](Nc2cnc(C(N)=O)c(Nc3cnc4ccccc4c3)n2)C1` [Example 110, (R)-5-((1-acetylpyrrolidin-3-yl)amino)-3-(quinolin-3-ylamino)pyrazine-2-carboxamide], for which the IC50 was above 1000 nM.

What is called IC50 is the concentration at which inhibition is half-maximal.

(Values after patent US9359308B2, “Pyrazine kinase inhibitors” (Portola Pharmaceuticals, Inc., priority 2011, dated 2016).)
